≈ marks a conversion by molar mass, not a printed value. Where two headings read alike, the source gives them in different places.
Key:
Format in all cases: cell-based
[1] = test system: Streptococcus pyogenes 1079; assay: MIC, microtiter broth dilution (NCCLS M100-S14), S. pyogenes 1079 (ermB)
How it was run: (§1)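 Panel strains, including macrolide-resistant isolates and their susceptible parents where available, are exposed to serial compound dilutions in microtiter trays. Growth inhibition is scored as MIC under NCCLS M100-S14 standards.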

[2] = test system: Streptococcus pneumoniae 1016; assay: MIC, microtiter broth dilution (NCCLS M100-S14), S. pneumoniae 1016 (susceptible)
How it was run: as §1

[3] = test system: Streptococcus pneumoniae 1095; details: microtiter broth dilution
How it was run: as §1

[4] = test system: Streptococcus pneumoniae 1175; details: microtiter broth dilution
How it was run: as §1

[5] = test system: Haemophilus influenzae 1218; assay: MIC, microtiter broth dilution (NCCLS M100-S14), H. influenzae 1218 (susceptible)
How it was run: as §1

[6] = S. pneumoniae 1016 (susceptible)
[7] = H. influenzae 1218 (susceptible)

Compound: CCC1OC(=O)C(C)C(=O)C(C)C(OC2OC(C)CC(N(C)C)C2O)C(C)(OC)CC(C)C(=O)C(C)C2N(CC3CN(Cc4cccc5ncccc45)C3)C(=O)OC12C (centres unmarked) [4.15]
- MIC S. pyogenes 1079 ([1]; Streptococcus pyogenes 1079): 32 µg/mL (≈ 38.9 µM)
- MIC S. pneumo. 1016 ([2]; Streptococcus pneumoniae 1016): <0.06 µg/mL
- MIC S. pneumo. 1095 ([3]; Streptococcus pneumoniae 1095): <0.06 µg/mL
- MIC S. pneumo. 1175 ([4]; Streptococcus pneumoniae 1175): <0.06 µg/mL
- MIC H. influenzae 1218 ([5]; Haemophilus influenzae 1218): 0.25 µg/mL (≈ 0.304 µM)

Compound: CCC1OC(=O)C(C)C(=O)C(C)C(OC2OC(C)CC(N(C)C)C2O)C(C)(OC)CC(C)C(=O)C(C)C2N(C3CN(Cc4c(Br)cnc5ncccc45)C3)C(=O)OC12C (centres unmarked) [Example 1.75, 3-descladinosyl-11,12-dideoxy-6-O-methyl-3-oxo-12,11-(oxycarbonyl-(1-(3-bromo-1,8-naphthyridine-4-methyl)-azetidin-3-yl)-imino)-erythromycin A]
- MIC S. pyogenes 1079 ([1]; Streptococcus pyogenes 1079): <0.063 µg/mL
- MIC S. pneumo. 1016 ([2]; Streptococcus pneumoniae 1016): <0.063 µg/mL
- MIC S. pneumo. 1095 ([3]; Streptococcus pneumoniae 1095): <0.063 µg/mL
- MIC S. pneumo. 1175 ([4]; Streptococcus pneumoniae 1175): <0.063 µg/mL
- MIC H. influenzae 1218 ([5]; Haemophilus influenzae 1218): 1 µg/mL (≈ 1.12 µM)

Compound: CCC1OC(=O)C(C)C(=O)C(C)C(OC2OC(C)CC(N(C)C)C2O)C(C)(OC)CC(C)C(=O)C(C)C2N(C3CN(Cc4ccnc5c4ncn5C)C3)C(=O)OC12C (centres unmarked) [Example 1.93, 3-descladinosyl-11,12-dideoxy-6-O-methyl-3-oxo-12,11-(oxycarbonyl-(1-(3-methyl-3H-imidazo[4,5-b]pyridine-7-methyl)-azetidin-3-yl)-imino)-erythromycin A]
- MIC S. pyogenes 1079 ([1]; Streptococcus pyogenes 1079): 1 µg/mL (≈ 1.23 µM)
- MIC S. pneumo. 1016 ([2]; Streptococcus pneumoniae 1016): <0.063 µg/mL
- MIC S. pneumo. 1095 ([3]; Streptococcus pneumoniae 1095): <0.063 µg/mL
- MIC S. pneumo. 1175 ([4]; Streptococcus pneumoniae 1175): 1 µg/mL (≈ 1.23 µM)
- MIC H. influenzae 1218 ([5]; Haemophilus influenzae 1218): 2 µg/mL (≈ 2.46 µM)

Compound: CCC1OC(=O)C(C)C(=O)C(C)C(OC2OC(C)CC(N(C)C)C2O)C(C)(OC)CC(C)C(=O)C(C)C2N(C3CN(C(=O)Nc4cccc5ncccc45)C3)C(=O)OC12C (centres unmarked) [Example 2.06, 3-descladinosyl-11,12-dideoxy-6-O-methyl-3-oxo-12,11-(oxycarbonyl-(1-(N-(quinolin-5-yl)-aminocarbonyl)-azetidin-3-yl)-imino)-erythromycin A]
- MIC S. pyogenes 1079 ([1]; Streptococcus pyogenes 1079): >64.00 µg/mL
- MIC S. pneumo. 1016 ([2]; Streptococcus pneumoniae 1016): <0.06 µg/mL
- MIC S. pneumo. 1095 ([3]; Streptococcus pneumoniae 1095): 16 µg/mL (≈ 19.1 µM)
- MIC S. pneumo. 1175 ([4]; Streptococcus pneumoniae 1175): 0.25 µg/mL (≈ 0.298 µM)
- MIC H. influenzae 1218 ([5]; Haemophilus influenzae 1218): 0.5 µg/mL (≈ 0.597 µM)

Compound: CCC1OC(=O)C(C)C(=O)C(C)C(OC2OC(C)CC(N(C)C)C2O)C(C)(OC)CC(C)C(=O)C(C)C2N(C3CN(S(=O)(=O)c4cccc(-n5cccn5)c4)C3)C(=O)OC12C (centres unmarked) [Example 3.58, 3-descladinosyl-11,12-dideoxy-6-O-methyl-3-oxo-12,11-(oxycarbonyl-(1-(3-(1H-pyrazol-1-yl)benzenesulfonyl)-azetidin-3-yl)-imino)-erythromycin A]
- MIC S. pyogenes 1079 ([1]; Streptococcus pyogenes 1079): 4 µg/mL (≈ 4.58 µM)
- MIC S. pneumo. 1016 ([2]; Streptococcus pneumoniae 1016): <0.06 µg/mL
- MIC S. pneumo. 1095 ([3]; Streptococcus pneumoniae 1095): <0.06 µg/mL
- MIC S. pneumo. 1175 ([4]; Streptococcus pneumoniae 1175): <0.06 µg/mL
- MIC H. influenzae 1218 ([5]; Haemophilus influenzae 1218): 1 µg/mL (≈ 1.14 µM)

Compound: CCC1OC(=O)C(C)C(=O)C(C)C(OC2OC(C)CC(N(C)C)C2O)C(C)(OC)CC(C)C(=O)C(C)C2N(CC3CCCN3C(=O)c3cnn4cccnc34)C(=O)OC12C (centres unmarked) [10.51]
- MIC S. pyogenes 1079 ([1]; S. pyogenes 1079 (ermB)): >64.00 µg/mL
- MIC S. pneumo. 1016 [2, 6]: <0.06 µg/mL
- MIC S. pneumo. 1095 ([3]; S. pneumoniae 1095 (ermB)): <0.06 µg/mL
- MIC S. pneumo. 1175 ([4]; S. pneumoniae 1175 (mefA)): 0.5 µg/mL (≈ 0.595 µM)
- MIC H. influenzae 1218 [5, 7]: 1 µg/mL (≈ 1.19 µM)

Compound: CCC1OC(=O)C(C)C(=O)C(C)C(OC2OC(C)CC(N(C)C)C2O)C(C)(OC)CC(C)C(=O)C(C)C2N(CC3CCCN3C(=O)c3cncc4ccccc34)C(=O)OC12C.O=CO (centres unmarked) [10.20]
- MIC S. pyogenes 1079 ([1]; S. pyogenes 1079 (ermB)): 64 µg/mL
- MIC S. pneumo. 1016 [2, 6]: <0.06 µg/mL
- MIC S. pneumo. 1095 ([3]; S. pneumoniae 1095 (ermB)): <0.06 µg/mL
- MIC S. pneumo. 1175 ([4]; S. pneumoniae 1175 (mefA)): 0.12 µg/mL
- MIC H. influenzae 1218 [5, 7]: 2 µg/mL

Compound: CCC1OC(=O)C(C)C(=O)C(C)C(OC2OC(C)CC(N(C)C)C2O)C(C)(OC)CC(C)C(=O)C(C)C2N(C3CN(S(=O)(=O)c4cccc5cccnc45)C3)C(=O)OC12C (centres unmarked) [Example 3.03, 3-descladinosyl-11,12-dideoxy-O-methyl-3-oxo-12,11-(oxycarbonyl-(1-(quinoline-8-sulfonyl)-azetidin-3-yl)-imino)-erythromycin A]
- MIC S. pyogenes 1079 ([1]; Streptococcus pyogenes 1079): 1 µg/mL (≈ 1.16 µM)
- MIC S. pneumo. 1016 ([2]; Streptococcus pneumoniae 1016): <0.06 µg/mL
- MIC S. pneumo. 1095 ([3]; Streptococcus pneumoniae 1095): <0.06 µg/mL
- MIC S. pneumo. 1175 ([4]; Streptococcus pneumoniae 1175): <0.06 µg/mL
- MIC H. influenzae 1218 ([5]; Haemophilus influenzae 1218): 0.12 µg/mL (≈ 0.14 µM)

Compound: CC[C@H]1OC(=O)[C@H](C)[C@@H](OC(=O)N2CCCC2)[C@H](C)[C@@H](O[C@@H]2O[C@H](C)C[C@H](N(C)C)[C@H]2O)[C@](C)(OC)C[C@@H](C)C(=O)[C@H](C)[C@H]2N(CC3CN(Cc4cccc5cccnc45)C3)C(=O)O[C@]12C [Example 5.08, 2-R^2: (quinolin-8-yl)methyl; R^#: pyrrolidin-1-yl]
- MIC S. pyogenes 1079 ([1]; Streptococcus pyogenes 1079): 16 µg/mL (≈ 17.4 µM)
- MIC S. pneumo. 1016 ([2]; Streptococcus pneumoniae 1016): <0.06 µg/mL
- MIC S. pneumo. 1095 ([3]; Streptococcus pneumoniae 1095): 0.25 µg/mL (≈ 0.271 µM)
- MIC S. pneumo. 1175 ([4]; Streptococcus pneumoniae 1175): <0.06 µg/mL
- MIC H. influenzae 1218 ([5]; Haemophilus influenzae 1218): 2 µg/mL (≈ 2.17 µM)

Compound: CCC1OC(=O)C(C)C(=O)C(C)C(OC2OC(C)CC(N(C)C)C2O)C(C)(OC)CC(C)C(=O)C(C)C2N(C3CN(Cc4ccc(-n5cccn5)nc4)C3)C(=O)OC12C (centres unmarked) [Example 1.45]
- MIC S. pyogenes 1079 ([1]; Streptococcus pyogenes 1079): 16 µg/mL (≈ 19.4 µM)
- MIC S. pneumo. 1016 ([2]; Streptococcus pneumoniae 1016): <0.06 µg/mL
- MIC S. pneumo. 1095 ([3]; Streptococcus pneumoniae 1095): <0.06 µg/mL
- MIC S. pneumo. 1175 ([4]; Streptococcus pneumoniae 1175): 0.5 µg/mL (≈ 0.606 µM)
- MIC H. influenzae 1218 ([5]; Haemophilus influenzae 1218): 4 µg/mL (≈ 4.85 µM)

— patent US7462600B2, “Macrolides” (Pfizer Inc, priority 2004, dated 2008)
